Laboratory results from ChEMBL document CHEMBL3525908, “Chronic doxorubicin cardiotoxicity modulates cardiac cytochrome P450-mediated arachidonic acid metabolism in rats” (Drug Metab Dispos, 2012).

Assays:
CYP2J3 = test: Toxicity in Sprague-Dawley rat assessed as induction of CYP2J3 gene expression in kidney administered as cumulative dose of 15 mg/kg, ip divided into 6 injections for 2 weeks followed by compound washout period of 14 days by RT-PCR analysis relative to control; assay type: organism-based; set-up: dose 15 mg/kg, route intraperitoneal
Rattus norvegicus [1] = test: Toxicity in Sprague-Dawley rat assessed as CYP1A2 gene expression in kidney administered as cumulative dose of 15 mg/kg, ip divided into 6 injections for 2 weeks followed by compound washout period of 14 days by RT-PCR analysis relative to control; assay type: organism-based; set-up: dose 15 mg/kg, route intraperitoneal; conditions: in vivo, 336 h
Rattus norvegicus [2] = test: Toxicity in Sprague-Dawley rat assessed as CYP2E1 gene expression in kidney administered as cumulative dose of 15 mg/kg, ip divided into 6 injections for 2 weeks followed by compound washout period of 14 days by RT-PCR analysis relative to control; assay type: organism-based; set-up: dose 15 mg/kg, route intraperitoneal; conditions: in vivo, 336 h
Rattus norvegicus [3] = test: Toxicity in Sprague-Dawley rat assessed as CYP4F1 gene expression in kidney administered as cumulative dose of 15 mg/kg, ip divided into 6 injections for 2 weeks followed by compound washout period of 14 days by RT-PCR analysis relative to control; assay type: organism-based; set-up: dose 15 mg/kg, route intraperitoneal; conditions: in vivo, 336 h
Rattus norvegicus [4] = test: (§1) Induction of […]-mediated arachidonic acid metabolism in Sprague-Dawley rat heart microsomes assessed as 20-HETE formation administered as cumulative dose of 15 mg/kg, ip divided into 6 injections for 2 weeks followed by compound washout period of 14 days by LC-ESI-MS analysis relative to control; assay type: ADME, organism-based; set-up: dose 15 mg/kg, route intraperitoneal; conditions: 336 h
EPHX2 = test: Cardiotoxicity in Sprague-Dawley rat assessed as increase in EPHX2 gene expression level administered as cumulative dose of 15 mg/kg, ip divided into 6 injections for 2 weeks followed by compound washout period of 14 days by RT-PCR analysis relative to control; assay type: toxicity, organism-based; set-up: dose 15 mg/kg, route intraperitoneal; conditions: heart
Rattus norvegicus [5] = test: Cardiotoxicity in Sprague-Dawley rat assessed as increase in sEH activity in heart microsomes administered as cumulative dose of 15 mg/kg, ip divided into 6 injections for 2 weeks followed by compound washout period of 14 days by RT-PCR analysis relative to control; assay type: toxicity, organism-based; set-up: dose 15 mg/kg, route intraperitoneal; conditions: 336 h
H9c2 [6] = test: Cytotoxicity against rat H9c2 cells assessed as reduction in ANP mRNA expression at 1 uM after 6 hrs; assay type: cell-based; conditions: h9c2, 6 h
H9c2 [7] = test: Cytotoxicity against rat H9c2 cells assessed as reduction in BNP mRNA expression at 1 uM after 6 hrs; assay type: cell-based; conditions: h9c2, 6 h
Rattus norvegicus [8] = test: Cardiotoxicity in Sprague-Dawley rat assessed as increase in CYP4A1 gene expression level administered as cumulative dose of 15 mg/kg, ip divided into 6 injections for 2 weeks followed by compound washout period of 14 days by RT-PCR analysis relative to control; assay type: toxicity, organism-based; set-up: dose 15 mg/kg, route intraperitoneal; conditions: in vivo, 336 h
H9c2 [9] = test: Cytotoxicity against rat H9c2 cells assessed as reduction in ANP mRNA expression at 1 uM after 6 hrs in presence of HET0016; assay type: cell-based; conditions: h9c2, 6 h
Rattus norvegicus [10] = test: (§2) Induction of CYP450-mediated arachidonic acid metabolism in Sprague-Dawley rat heart microsomes assessed as 8,9-EET formation administered as cumulative dose of 15 mg/kg, ip divided into 6 injections for 2 weeks followed by compound washout period of 14 days by LC-ESI-MS analysis relative to control; assay type: ADME, organism-based; set-up: dose 15 mg/kg, route intraperitoneal; conditions: 336 h
Rattus norvegicus [11] = test: as §2, with “14,15-DHET” for “8,9-EET”; assay type: ADME, organism-based; set-up: dose 15 mg/kg, route intraperitoneal; conditions: 336 h
Rattus norvegicus [12] = test: as §1, with “EET/DHET” for “20-HETE”; assay type: ADME, organism-based; set-up: dose 15 mg/kg, route intraperitoneal; conditions: 336 h
Rattus norvegicus [13] = test: Toxicity in Sprague-Dawley rat assessed as sEH gene expression in liver administered as cumulative dose of 15 mg/kg, ip divided into 6 injections for 2 weeks followed by compound washout period of 14 days by RT-PCR analysis; assay type: organism-based; set-up: dose 15 mg/kg, route intraperitoneal; conditions: in vivo, 336 h
Rattus norvegicus [14] = test: Toxicity in Sprague-Dawley rat assessed as induction of TNF-alpha gene expression in liver administered as cumulative dose of 15 mg/kg, ip divided into 6 injections for 2 weeks followed by compound washout period of 14 days by RT-PCR analysis relative to control; assay type: organism-based; set-up: dose 15 mg/kg, route intraperitoneal; conditions: 336 h
Rattus norvegicus [15] = test: Toxicity in Sprague-Dawley rat assessed as induction of IL-6 gene expression in liver administered as cumulative dose of 15 mg/kg, ip divided into 6 injections for 2 weeks followed by compound washout period of 14 days by RT-PCR analysis relative to control; assay type: organism-based; set-up: dose 15 mg/kg, route intraperitoneal; conditions: 336 h
CYP1A1 = test: Toxicity in Sprague-Dawley rat assessed as induction of CYP1A1 gene expression in liver administered as cumulative dose of 15 mg/kg, ip divided into 6 injections for 2 weeks followed by compound washout period of 14 days by RT-PCR analysis relative to control; assay type: organism-based; set-up: dose 15 mg/kg, route intraperitoneal
CYP4F5 = test: Toxicity in Sprague-Dawley rat assessed as induction of CYP4F5 gene expression in liver administered as cumulative dose of 15 mg/kg, ip divided into 6 injections for 2 weeks followed by compound washout period of 14 days by RT-PCR analysis relative to control; assay type: organism-based; set-up: dose 15 mg/kg, route intraperitoneal
Rattus norvegicus [16] = test: Toxicity in Sprague-Dawley rat assessed as inhibition of CYP2B2 gene expression in liver administered as cumulative dose of 15 mg/kg, ip divided into 6 injections for 2 weeks followed by compound washout period of 14 days by RT-PCR analysis relative to control; assay type: organism-based; set-up: dose 15 mg/kg, route intraperitoneal; conditions: in vivo, 336 h
Rattus norvegicus [17] = test: Toxicity in Sprague-Dawley rat assessed as inhibition of CYP2C11 gene expression in liver administered as cumulative dose of 15 mg/kg, ip divided into 6 injections for 2 weeks followed by compound washout period of 14 days by RT-PCR analysis relative to control; assay type: organism-based; set-up: dose 15 mg/kg, route intraperitoneal; conditions: in vivo, 336 h
Rattus norvegicus [18] = test: Toxicity in Sprague-Dawley rat assessed as CYP2E1 gene expression in liver administered as cumulative dose of 15 mg/kg, ip divided into 6 injections for 2 weeks followed by compound washout period of 14 days by RT-PCR analysis relative to control; assay type: organism-based; set-up: dose 15 mg/kg, route intraperitoneal; conditions: in vivo, 336 h
CYP2E1 = test: Cardiotoxicity in Sprague-Dawley rat assessed as increase in CYP2E1 gene expression level administered as cumulative dose of 15 mg/kg, ip divided into 6 injections for 2 weeks followed by compound washout period of 14 days by RT-PCR analysis relative to control; assay type: toxicity, organism-based; set-up: dose 15 mg/kg, route intraperitoneal; conditions: heart
Rattus norvegicus [19] = test: Cardiotoxicity in Sprague-Dawley rat assessed as increase in IL-6 gene expression level administered as cumulative dose of 15 mg/kg, ip divided into 6 injections for 2 weeks followed by compound washout period of 14 days by RT-PCR analysis relative to control; assay type: toxicity, organism-based; set-up: dose 15 mg/kg, route intraperitoneal; conditions: in vivo, 336 h
Rattus norvegicus [20] = test: Cardiotoxicity in Sprague-Dawley rat assessed as increase in ANP gene expression level administered as cumulative dose of 15 mg/kg, ip divided into 6 injections for 2 weeks followed by compound washout period of 14 days by RT-PCR analysis relative to control; assay type: toxicity, organism-based; set-up: dose 15 mg/kg, route intraperitoneal; conditions: 336 h
Rattus norvegicus [21] = test: Cardiotoxicity in Sprague-Dawley rat assessed as increase in beta-MHC gene expression level administered as cumulative dose of 15 mg/kg, ip divided into 6 injections for 2 weeks followed by compound washout period of 14 days by RT-PCR analysis relative to control; assay type: toxicity, organism-based; set-up: dose 15 mg/kg, route intraperitoneal; conditions: 336 h
Rattus norvegicus [22] = test: Cardiotoxicity in Sprague-Dawley rat assessed as increase in CYP2C11 gene expression level administered as cumulative dose of 15 mg/kg, ip divided into 6 injections for 2 weeks followed by compound washout period of 14 days by RT-PCR analysis relative to control; assay type: toxicity, organism-based; set-up: dose 15 mg/kg, route intraperitoneal; conditions: in vivo, 336 h

- Activity (Rattus norvegicus [10]): Active
- Ratio (Rattus norvegicus [11]): 1.3
SMILES: COc1cccc2c1C(=O)c1c(O)c3c(c(O)c1C2=O)C[C@@](O)(C(=O)CO)C[C@@H]3O[C@H]1C[C@H](N)[C@H](O)[C@H](C)O1 [DOXORUBICIN]
- fold induction at 336 h (CYP2J3): 1.6
- Activity (Rattus norvegicus [1]): Non-toxic
- Activity (Rattus norvegicus [2]): Non-toxic
- Activity (Rattus norvegicus [3]): Non-toxic
- Activity (Rattus norvegicus [4]): Toxic
- fold induction at 336 h (EPHX2): 1.9
- Ratio (Rattus norvegicus [5]): 1.6
- Activity (H9c2 [6]): Non-toxic
- Activity (H9c2 [7]): Non-toxic
- Activity (Rattus norvegicus [8]): Non-toxic
- Activity (H9c2 [9]): Toxic
- Activity (Rattus norvegicus [12]): Toxic
- Activity (Rattus norvegicus [13]): Non-toxic
- fold induction at 15 mg/kg (Rattus norvegicus [14]): 2.2
- fold induction at 15 mg/kg (Rattus norvegicus [15]): 4.5
- fold induction at 336 h (CYP1A1): 2.8
- fold induction at 336 h (CYP4F5): 1.8
- Ratio (Rattus norvegicus [16]): 0.5
- Ratio (Rattus norvegicus [17]): 0.7
- Activity (Rattus norvegicus [18]): Non-toxic
- fold induction at 336 h (CYP2E1): 1.8
- Ratio (Rattus norvegicus [19]): 1.8
- fold induction at 15 mg/kg (Rattus norvegicus [20]): 3.5
- fold induction at 15 mg/kg (Rattus norvegicus [21]): 2.7
- Activity (Rattus norvegicus [22]): Non-toxic
